From patent publication US12692232B2, “Indole carboxamide compound, preparation therefor and use thereof” (NANJING RUISHUNING MEDICAL TECHNOLOGY CO., LTD., priority 2021, dated 2026)

System: mouse model of focal segmental glomerulosclerosis
Assay: Mouse model of focal segmental glomerulosclerosis (adriamycin)
Format: in vivo
Details: for serum urea nitrogen level: model 16.08±0.23; for urine protein level: model 547.0±106.3; for glomerular lesions, renal tissue pathology (H&E, PAS, Sirius red stain): FIG. 1; for glomerular lesions, renal tissue pathology (H&E, PAS, Sirius red stain) / body weight compared with the FSGS group: control compound 25 mg/kg, irbesartan 50 mg/kg; for body weight compared with the FSGS group: gavage daily 6 weeks, compound 1-1 10, 25, 50 mg/kg
Method: The method was as follows:
Each mouse in the model group, the treatment groups and the positive control group was injected once into the tail vein with adriamycin at a dose of 8 mg/kg, and each mouse in the control group was injected once into the tail vein with saline at the same dose. The mice in the control group and model group were administered equal amount of saline by gavage for 6 weeks, and the mice in other group were administered corresponding compound in doses by gavage at a fixed time each day for 6 weeks after modelling with adriamycin. The body weights were recorded weekly and urine samples were collected.
Collection of urine samples: animals were placed in separate metabolic cages by group on days 0, 7, 14, 21, 28, 35, and 42 after modelling, with free access to water and no access to food, and urine samples were collected from each group of mice.
Determination of urine protein level using Coomassie brilliant blue (CBB) method: urine protein level was determined by urine protein quantitative test kit (Nanjing Jiancheng Bioengineering Institute). CBB working solution was prepared according to the kit instructions. 0.05 mL of each urine sample was mixed with 3 mL of CBB working solution, the mixture was allowed to stand for 5 min, and the absorbance value of each sample was determined at 595 nm. The urine protein levels samples of each group was calculated according to the protein standardization formula: urine protein level (mg/L)=(measured OD−blank OD)/(standard OD−blank OD)×563 mg/L.
Collection of serum samples: orbital blood from each mouse was collected in an EP tube, placed at 37° C. for 20 minutes, and centrifuged to obtain an upper layer of serum.
Collection of plasma samples: orbital blood from each mouse was collected in an anticoagulation tube, mixed well and stored at 4° C. for later use.
Determination of urea nitrogen level in plasma by diacetyl monoxime method: urea nitrogen level was determined by using blood urea nitrogen (BUN) test kit (Nanjing Jiancheng Bioengineering Institute). According to the kit instructions, 0.05 mL of anticoagulated plasma sample was mixed with 1 mL of oxime solution and 1 mL of acid working solution, and the mixtures were placed in a boiling water bath for 15 minutes. A UV-visible spectrophotometer was used to determine the absorbance values of each tube at a wavelength of 520 nm. Urea nitrogen levels in plasma samples of each group were calculated according to the formula: Urea nitrogen level (mmol/L)=(measured OD value−blank OD value)/(standard OD value−blank OD value)×10 mmol/L.
Collection of kidney tissue samples: kidneys were taken from mice after anesthesia, cut horizontally, and the upper part of the kidneys was embedded in OCT embedding box, sliced with frozen slicer and stored at −20° C.
H&E staining was used to assess pathological glomerular changes, and the procedure was as follows: frozen sections were fixed with 95% ethanol for 2 minutes, hydrated with distilled water, stained with hematoxylin for 3 minutes, washed with distilled water for 3 minutes, differentiated using 1% hydrochloric acid in ethanol for 10 seconds, washed with distilled water for 30 seconds, returned to blue in running water for 5 minutes, washed in distilled water for 30 seconds, stained with eosin for 30 seconds, washed with 75% and 85% ethanol for 20 seconds each, dehydrated rapidly with 95% ethanol for 1 minute, dehydrated with anhydrous ethanol, cleared to transparency in xylene (1 minute×3), and finally sealed with neutral balsam and photographed with a biomicroscope.

| SMILES | serum urea nitrogen level reduced compared with the model group (25 mg/kg gavage, 6 weeks) | urine protein level reduced compared with the model group (25 mg/kg gavage, 6 weeks) | serum urea nitrogen level (25 mg/kg gavage, 6 weeks) | urine protein level (25 mg/kg gavage, 6 weeks) | glomerular lesions, renal tissue pathology (H&E, PAS, Sirius red stain) | body weight compared with the FSGS group | serum urea nitrogen level vs model group (10 mg/kg gavage, 6 weeks) | urine protein level vs model group (10 mg/kg gavage, 6 weeks) | serum urea nitrogen level reduced compared with the model group (50 mg/kg gavage, 6 weeks) | urine protein level reduced compared with the model group (50 mg/kg gavage, 6 weeks) | serum urea nitrogen level (50 mg/kg gavage, 6 weeks) | urine protein level (50 mg/kg gavage, 6 weeks) |
| --- | --- | --- | --- | --- | --- | --- | --- | --- | --- | --- | --- | --- |
| Cn1c(C(=O)NCCC(=O)O)cc2ccccc21 [3-[(1-methyl-1H-indole-2-carbonyl)amino]propionic acid, reference compound] | 20.3% | 22.6% | 12.82 ± 0.46 mmol/L | 423 ± 64.7 mg/L | glomerular mesangial matrix hyperplasia is reduced compared with the model group, but increased compared with the treatment groups of compound 1-1 | increased body weights | – | – | – | – | – | – |
| CC(=O)OCCCNC(=O)c1c(C=O)c2ccccc2n1C [compound 1-1, propyl 3-[(3-formyl-1-methyl-1H-indole-2-carbonyl)amino]acetate] | 27.2% | 28.6% | 11.7 ± 0.33 mmol/L | 390 ± 74.6 mg/L | significantly ameliorates glomerular lesions caused by FSGS | increased body weights | significantly reduced | significantly reduced | 29.8% | 42.7% | 11.29 ± 0.40 mmol/L | 313 ± 57.6 mg/L |
